Entries after “also recorded” stand apart in the source; their conditions may differ. Like-named read-outs stand apart in the source and are kept apart here.
Experiments:
[1] = Peptide solubility in sterile pure water; type: physicochemical
Protocol: The theoretical average peptide hydrophilicity was calculated using the Hopp and Woods scale (28). For solubility determination, peptides were dissolved in sterile pure water at 50mg/ml (pH=7), mixed, centrifuged and the presence of a pellet indicated insolubility. Insoluble peptides were sequentially diluted and tested down to 2.5mg/ml or until solubility was observed. Peptides not fully dissolved at 2.5mg/ml were considered insoluble in this study.

[2] = test system: T cells expanded for 14 days with allergen extract and IL-2; settings: allergic population; cited from earlier work
[3] = test system: PBMCs of Alternaria allergic patients and control subjects; assay: IL-4 ELISPOT of PBMCs exposed to peptide; type: cell-based, human; settings: for number of patients stimulated: IL-4 ELISPOT, cut-off >9 spot counts
Excerpt: Peripheral blood was obtained by venipuncture from Alternaria allergic patients and non-sensitized controls. Peripheral blood mononuclear cells (PBMCs) were isolated from heparinized blood by standard Ficoll density gradient centrifugation. PBMCs were washed with CTL (Cellular Technology Limited, Cleveland, Ohio, USA) wash medium containing RPMI-1640 with L-glutamine (Lonza, Basel, Switzerland) before being counted by haemocytometer using trypan blue stain (Sigma). PBMCs (10 million/ml) were resuspended in CTL-Cryo ABC serum-free freezing medium according to the manufacturer's protocol before being frozen overnight at −80° C. and transferred to and stored in liquid nitrogen until time of use.
Enzyme-linked immunospot assay (ELISPOT) analysis was performed utilizing 16 Alternaria patients and 11 controls. For an individual peptide the number of Alternaria patients tested ranged between 10-15 and the number of control subjects ranged between 7-9. Ten Alternaria patients were fully tested with all 22 peptides. For ELISPOT, the BD ELISPOT Human IL-4 Set (BD Biosciences, San Diego, Calif., USA) was used to analyze IL-4 production by human PBMCs. Plates were coated overnight at 4° C. with IL-4 capture antibody (BD Biosciences) and then washed 3 times with Dulbecco's Phosphate Buffer Saline (DPBS, Sigma). Plates were blocked with 1% BSA (Sigma) in PBS for 2 h at room temperature and washed 3 times with DPBS. Cryopreserved Alternaria patient and control subject PBMCs were thawed rapidly, washed, counted, and resuspended in CTL Test Medium supplemented with 2 mM L-glutamine (Sigma) and used at a concentration of 300,000 cells/well contained in 100 μl. […] The plates were dried and analyzed on the ImmunoSpot UV Core ELISPOT Plate Reader (Cellular Technology Limited).
The two-independent sample Wilcoxon rank sum test was used for statistical analysis of ELISPOT data (26). A one-sided control<patient p-value was determined except for peptides 7-21 and 143-157 where a one-sided patient >control p-value was calculated. […]
Two methods were evaluated to interpret the IL-4 ELISPOT spot count data. […]

[4] = biological target: DRB1*0101, 0301, 0401, 0701, 1101, 1301,1501 (Homo sapiens, UniProt P01903+P01911, A100R/D57E/F55L/F60I/F76Y/I96L/L162R/M171V/P40L/Q125E/R42F/V115G/Y59C); assay: REVEAL Class II binding assay and Quick Check Stability Assay (MHC-peptide binding); settings: 7 DRB1 alleles; stability index ≧1.0 considered positive for MHC binding
Protocol: The MHC restriction of peptides from ProPred prediction were evaluated using the REVEAL Class II binding assay and Quick Check Stability Assay performed by ProImmune (Oxford, United Kingdom). In the REVEAL cell free in vitro assay, the binding of a peptide to an HLA molecule is determined by its ability to stabilize a MHC class II-peptide complex. Each MHC class II-peptide binding was scored relative to a validated proprietary T cell epitope control peptide. The score was determined as the percentage of the signal generated by the test peptide versus the level for the positive control peptide and reflects the on-rate properties of peptide. The off-rate properties of the peptide were determined by the Quick Check Stability Assay which measured the amount of peptide bound at time zero and time 24 hours at 37° C. The two signals were used to estimate a half-life which was multiplied by the REVEAL score and divided by 100 to yield the combined stability index. A stability index ≧1.0 was considered positive for MHC binding.
To confirm ProPred predictions and to validate peptides for continued analysis using IL-4 ELISPOT, an in vitro MHC-peptide binding assay was used to measure binding of 22/25 15mers (excluding p3-17, 42-56, and 43-57) to the 7 DRB1 alleles which accounted for the majority of the ProPred predictions (Table II). […] High stringency binding prediction rates were accurate for alleles *0301 (none predicted) and *1501 (none predicted), while inaccurate with low stringency positive binding prediction rates of 0% (0/10) and 25% (1/4), respectively. Both alleles *0301 and *1501 had low false negative rates of 8% (1/12) and 6% (1/18), respectively. ProPred was inaccurate at both high and low stringency for the three remaining alleles with a 0% binding prediction rate for *0701 (0/9), *1101 (0/14) and *1301 (0/7) but also yielding 0% false negative rates at 0/13, 0/8 and 0/14, respectively. […]

[5] = sterile pure water pH=7, 50mg/ml diluted down to 2.5mg/ml, not fully dissolved at 2.5mg/ml = insoluble

| solubility in H2O [1] | Compound | also measured |
| --- | --- | --- |
| insoluble | CC[C@H](C)[C@H](NC(=O)[C@H](Cc1ccc(O)cc1)NC(=O)[C@H](C)NC(=O)[C@H](CC(=O)O)NC(=O)[C@H](C)NC(=O)[C@@H](N)C(C)C)C(=O)N[C@H](C(=O)N[C@@H](CC(C)C)C(=O)N[C@H](C(=O)N[C@H](C(=O)N[C@@H](CC(C)C)C(=O)N1CCC[C@H]1C(=O)N[C@@H](CCCCN)C(=O)N[C@@H](CO)C(=O)N[C@@H](CO)C(=O)O)[C@@H](C)O)C(C)C)[C@@H](C)O [p143-157] | number of patients stimulated [3]: one; IL-5 and INF-γ ELISPOT result [2]: positive for IL-5 only |
| insoluble | H-AADAYITLVTLPKSS-OH [p143-157:V143A] |  |
| soluble | H-EADAYITLVTLPKSS-OH [p143-157:V143E] |  |
| insoluble | H-EDDITYVATATLPNY-OH [p113-127:S113E] |  |
| insoluble | H-EKDFVVQGVADAYIT-OH [p135-149:P135E] |  |
| soluble | H-ENSLGFNIKATNGGT-OH [p55-69:Y55E] |  |
| insoluble | H-PKDFVVQGVADAYIT-OH [p135-149] |  |
| soluble | H-SADAYITLVTLPKSS-OH [p143-157:V143S] |  |
| insoluble | H-SKDFVVQGVADAYIT-OH [p135-149:P135S] |  |
| soluble | H-SNSLGFNIKATNGGT-OH [p55-69:Y55S] |  |
| insoluble | H-VNSLGFNIKATNGGT-OH [p55-69:Y55V] |  |

More lines, now with the values behind:

| Compound | solubility in H2O [1] | also measured |
| --- | --- | --- |
| CC[C@H](C)[C@H](N)C(=O)N[C@@H](C)C(=O)N[C@@H](CO)C(=O)N[C@@H](CC(C)C)C(=O)N[C@@H](Cc1ccccc1)C(=O)N[C@@H](C)C(=O)N[C@@H](C)C(=O)N[C@@H](C)C(=O)NCC(=O)N[C@@H](CC(C)C)C(=O)N[C@@H](C)C(=O)N[C@@H](C)C(=O)N[C@@H](C)C(=O)N[C@@H](C)C(=O)N1CCC[C@H]1C(=O)O [p6-20] | insoluble | IL-5 and INF-γ ELISPOT result [2]: positive for IL-5 only |
| H-AAYLLLGLGGNTSPS-OH [p5-19] |  | activity in Alternaria patients (ELISPOT) ([3]; Alt a 5 peptide, three Alternaria patients, methods as Example 1): active in all 3 patients |
| H-ANSLGFNIKATNGGT-OH [p55-69:Y55A] | soluble |  |
| H-ASLFAAAGLAAAAPL-OH [p7-21] |  | solubility in H2O [1, 5]: insoluble |
| H-EETYYNSLGFNIKAT-OH [p51-65:G52E] | insoluble |  |
| H-EGDYVWKISEFYGRK-OH [p35-49] |  | in vitro binding to DRB1 alleles [4]: non-binding; also recorded: no in vitro binding to any DRB1 allele |
| H-EGTYYNSLGFNIKAT-OH [p51-65] |  | solubility in H2O [1, 5]: insoluble |
| H-ESTYYNSLGFNIKAT-OH [p51-65:G52S] | soluble |  |
| H-ETYYNSLGFNIKATN-OH [p52-66:G52E] | insoluble |  |
| H-FTTIASLFAAAGLAA-OH [p3-17] |  | solubility in H2O [1, 5]: insoluble |
| H-GTYYNSLGFNIKATN-OH [p52-66] |  | solubility in H2O [1, 5]: insoluble |
| H-LQFTTIASLFAAAGL-OH [p1-15] | insoluble | number of patients stimulated [3]: one; IL-5 and INF-γ ELISPOT result [2]: negative to both cytokines |
| H-RSGLLLKQKVSDDIT-OH [p103-117] |  | in vitro binding to DRB1 alleles [4]: non-binding; also recorded: no in vitro binding to any DRB1 allele |
| H-SDDITYVATATLPNY-OH [p113-127] |  | solubility in H2O [1, 5]: insoluble |
| H-SGLLLKQKVSDDITY-OH [p104-118] |  | in vitro binding to DRB1 alleles [4]: non-binding; also recorded: no in vitro binding to any DRB1 allele |
| H-STYYNSLGFNIKATN-OH [p52-66:G52S] | soluble |  |
| H-YNSLGFNIKATNGGT-OH [p55-69] |  | solubility in H2O [1, 5]: insoluble |

From patent US20160130311A1, “T CELL EPITOPES DERIVED FROM ALT A 1 OR ALT A 5 FOR THE TREATMENT OF ALTERNARIA ALTERNATA ALLERGY” (priority 2013, published 2016)
